Experimental data from US20180338922A1, “FIXED DOSE FORMULATIONS” (Esperion Therapeutics, Inc., priority 2017, published 2018).
Entries after “also recorded” stand apart in the source; their conditions may differ. Read-outs that look alike come from different tables or passages of the source.

How the values were obtained:
[1] = Forced degradation of bempedoic acid; type: physicochemical
Experimental: Forced degradation of bempedoic acid was carried out to study the impurity profile, degradation pathway, and to facilitate the development of a stability-indicating method. In addition, knowledge obtained from the forced degradation studies was used during formulation and process design and development to prevent impurities from being generated. The specified stress conditions were intended to achieve 5-20% degradation. The stressed samples were compared to the unstressed sample (control).

[2] = Log partition coefficient (log p); type: physicochemical
[3] = pKa by potentiometric titration; type: physicochemical; details: determined by potentiometric titration
[4] = Multimedia dissolution of Bempedoic acid tablets (USP Apparatus-II, 50 rpm, 900 mL); type: physicochemical; details: QC medium (phosphate buffer, pH 6.8); in 20 minutes
Experimental: Dissolution characterization was performed in accordance with the dissolution method detailed in IND #106,654. The dissolution conditions were 900 mL phosphate buffer, pH 6.8, using Apparatus-II at 50 rpm.

[5] = cited from earlier work
[6] = Flowability of the APIs (compressibility index, Hausner's ratio); type: physicochemical; details: drug substance
[7] = Drug-drug compatibility study (HPLC, binary mixture 1:18 ezetimibe:bempedoic acid, solid state); type: physicochemical; details: for Assay (Bempedoic Acid): in % (unit assumed)
Experimental: The fixed dose combination product under development is a novel combination of two drug substances and therefore determination of compatibility of the actives with each other was considered to be critical. The compatibility of the actives was assessed through HPLC analysis of binary mixtures of the drug substances at a ratio 1:18 (ezetimibe:bempedoic acid) in the solid state. Samples were stored at 60° C. and 40° C./75% RH in both open and closed containers for 2 weeks and 4 weeks respectively. Degradation products were evaluated for open (stressed) samples of accelerated condition (40° C./75% RH) and 60° C. Assay for the samples was also carried out.

[8] = Drug substance attributes (solubility, permeability, BCS class, hygroscopicity); type: physicochemical
[9] = QC dissolution of ezetimibe component (0.45% SLS in 0.05 M acetate buffer pH 4.5, Apparatus-II, 50 rpm, 500 mL); type: physicochemical; details: QC dissolution medium, within 15 minutes
Experimental: Drug release profiles for both actives were estimated using common chromatographic conditions with different injection volumes.
The goal of Formulation Development Study #2 was to optimize the concentration of binder used for the granulation of ezetimibe. Wet granulation was used for the preparation of ezetimibe granules. Binder solution, povidone with SLS, and ezetimibe were used for the granulation of dry-mix powder blend. One trial with a higher concentration of povidone (3 mg/tablet) and another with a lower concentration (1 mg/tablet) were performed to observe the impact of binder concentration on dissolution. Ezetimibe granules were mixed with Bempedoic acid granules separately and compressed into a monolayer tablet for both trials.
Dissolution Profile of FDC test product (ezetimibe component) in QC media is given in Table 52, Table 53, FIG. 15, and FIG. 16.

[10] = Forced degradation of ezetimibe; type: physicochemical
[11] = 18.48 mg of solid in Sun cabinet 765 W/m2 at 35° C. for 24 hrs
[12] = 21.41 mg of solid + Heating at 80° C. for 24 hrs
[13] = 5.0 mL stock solution + Heating at 80° C. for 30 min
[14] = 5.0 mL stock solution in Sun cabinet 765 W/m2 at 35° C. for 15 hrs

Q: Which results are given for `CC(C)(CCCCCC(O)CCCCCC(C)(C)C(=O)O)C(=O)O` [Bempedoic acid, 8-hydroxy-2,2,14,14-tetramethylpentadecanedioic acid]?
A: Assay ([1]; Non stressed bempedoic acid): 99.0%; Assay ([1]; Photo, solid state): 99.2%; Assay ([1]; Thermal, solid state 105° C.): 95.8%; Assay ([1]; Thermal, solution 105 C): 97.7%; stability in the stress test study ([1]; all studied stress conditions): stable at all studied conditions; Assay ([1]; exposed to H2O2): 100.4%; Assay ([1]; exposed to HCl): 98.7%; Assay ([1]; exposed to NaOH, differs from expected ~100% due to non-quantitative neutralization prior to injection (footnote 2)): 117.3(2) %; logP ([2]; octanol/pH 3.5 buffer, pH 3.5): 4.38; logP ([2]; octanol/water): 4.33; pKa [3]: 4.88; pKa ([3]; second value): 5.6; drug released [4]: more than 85%; aqueous solubility [5]: pH dependent; aqueous solubility ([5]; listed as Bempedoic acid (ETC-1002)): poorly soluble in water; Hausner's ratio [6]: 1.48; compressibility index [6]: 32.6%; Assay (Bempedoic Acid) ([7]; 2W 60°): 100.2; Assay (Bempedoic Acid) ([7]; 4W 40° C./75% RH Open): 103.7; unspecified impurity ([7]; Initial, 2W 60°, 4W 40° C./75%): No unspecified impurity generated; Assay (Bempedoic Acid) ([7]; Initial): 101.7

Q: Which BCS class [8] does the source give for `O=C1[C@H](CC[C@H](O)c2ccc(F)cc2)[C@@H](c2ccc(O)cc2)N1c1ccc(F)cc1` [Ezetimibe, (3R,4S)-1-(4-fluorophenyl)-3-[(3S)-3-(4-fluorophenyl)-3-hydroxypropyl]-4-(4-hydroxyphenyl) azetidin-2-one] here?
A: Its BCS class is “Ezetimibe is BCS class II compounds having low”.

Q: And the Solubility [8]?
A: The Solubility was “low solubility”.

Q: What about the logP ([2]; n-octanol/pH 7 aqueous phase, n-octanol: pH 7) of the same compound?
A: Its logP is 4.51.

Q: What about the logP ([2]; pH 1, n-octanol: 0.1N HCl) of the same compound?
A: Its logP is 4.52.

Q: And the pKa [3]?
A: The pKa was 9.75.

Q: And the “drug release (ezetimibe)” value [9]?
A: Its value is “more than 85%”.

Q: What about the “% Degradation, Total (unspecified and specified)” value (shortened to “% Degradation, Total”) [10, 11] of the same compound?
A: Its value is 0.22%.

Q: What about the Assay [10, 11] of the same compound?
A: The Assay was 98.0%.

Q: And the “% Degradation, Total” value [10, 12]?
A: Its value is 0.14%.

Q: What about the Assay [10, 12] of the same compound?
A: Its Assay is 96.3%.

Q: What about the Assay ([10]; 5.0 mL stock solution + 0.1 mL 1N NaOH at RT for 30 min) of the same compound?
A: The Assay was 83.1%.

Q: What about the Assay ([10]; 5.0 mL stock solution + 1 mL 1N HCl at RT for 24 hrs) of the same compound?
A: Its Assay is 97.9%.

Q: What about the Assay ([10]; 5.0 mL stock solution + 1 mL H2O2 30% at RT for 24 hrs) of the same compound?
A: Its Assay is 97.0%.

Q: And the “% Degradation, Total” value [10, 13]?
A: The value was 5.67%.

Q: And the Assay [10, 13]?
A: The Assay was 93.1%.

Q: And the “% Degradation, Total” value [10, 14]?
A: The value was 1.57%.

Q: And the Assay [10, 14]?
A: Its Assay is 95.0%.

Q: What about the “% Degradation, Total” value ([10]; Non stressed ezetimibe) of the same compound?
A: Its value is 0.12%.

Q: What about the Assay ([10]; Non stressed ezetimibe) of the same compound?
A: Its Assay is 100.0%.

Q: What about the “stability classification from forced degradation” value ([10]; exposure to alkali (NaOH) and peroxide (H2O2)) of the same compound?
A: The value was “sensitive to alkali and peroxide”.

Q: What about the “stability in the solid form” value ([10]; heat and photo irradiation, solid form) of the same compound?
A: Its value is “stable to heat and photo irradiation”.

Q: And the aqueous solubility [5]?
A: Its aqueous solubility is “insoluble in aqueous media at all pH; also recorded: poorly soluble in water”.

Q: And the “Hausner's ratio” value [6]?
A: The value was 1.42.

Q: What about the compressibility index [6] of the same compound?
A: The compressibility index was 29.60%.

Q: What about the Assay (EZT) ([7]; 2W 60°) of the same compound?
A: The Assay (EZT) was 97.6%.

Q: What about the “EZT 21 (Keto impurity)” value ([7]; 2W 60°) of the same compound?
A: The value was 0.04.

Q: And the EZT cyclic ether ([7]; 2W 60°)?
A: The EZT cyclic ether was 0.12%.

Q: And the SMUI ([7]; 2W 60°)?
A: Its SMUI is 0.17%.

Q: And the Total impurities ([7]; 2W 60°)?
A: Its Total impurities is 0.33%.

Q: What about the Assay (EZT) ([7]; 4W 40° C./75% RH Open) of the same compound?
A: Its Assay (EZT) is 99.5%.

Q: And the “EZT 21 (Keto impurity)” value ([7]; 4W 40° C./75% RH Open)?
A: Its value is 0.38.

Q: What about the EZT cyclic ether ([7]; 4W 40° C./75% RH Open) of the same compound?
A: The EZT cyclic ether was 0.9%.

Q: And the SMUI ([7]; 4W 40° C./75% RH Open)?
A: The SMUI was 0.19%.

Q: And the Total impurities ([7]; 4W 40° C./75% RH Open)?
A: The Total impurities was 2.34%.

Q: What about the Assay (EZT) ([7]; Initial) of the same compound?
A: The Assay (EZT) was 99.3%.

Q: And the “EZT 21 (Keto impurity)” value ([7]; Initial)?
A: The value was 0.03.

Q: And the SMUI ([7]; Initial)?
A: The SMUI was 0.03%.

Q: And the Total impurities ([7]; Initial)?
A: The Total impurities was 0.06%.
